Reference: US20180369195A1, “COMBINATION THERAPY FOR TREATMENT OF MELANOMA” (The Regents of the University of California, priority 2015, published 2018)

Legend:
LRP5/6 = assay: Western blot of Wnt co-receptor; type: cell-based, human; conditions: melanoma cell lines, 20 μM 1-benzyl I3C
Procedure: (§1) Western Blot analyses of samples electrophoretically fractionated on 12% acrylamide gels were carried out as previously described (Wagle et al., J. Clin. Oncol. 2011. 29(22):3085-3096; Nguyen et al., Chem. Biol. Interact. 2010. 186(3):255-266). Enhanced chemiluminescence (ECL) Lightening reagents were used to visualize the primary antibody bound protein bands in nitrocellulose membranes and the results captured on ECL Autoradiography Film (GE Healthcare, Piscataway, N.J.). The western blots employed the following primary antibodies: mouse anti-MITF-M (Thermo-scientific), mouse anti-HSP 90 (BD Biosciences), mouse anti-CDK2, rabbit anti-CDK4, rabbit anti-CDK-6, mouse anti-rabbit BRAF, goat anti-LEF-1, rabbit anti-AXIN, mouse anti-BCL2, (Santa Cruz), rabbit anti-P21, mouse anti-Cyclin D1, rabbit anti-MEK-p, rabbit anti-MEK1/2, rabbit anti-GSK3β rabbit anti-LRP6, rabbit anti-LRP6-phospho (Cell signaling), mouse anti-β-catenin (Invitrogen).

DM738 cells = assay: Flow cytometry analysis of DNA content, DM738; type: cell-based, human; conditions: maximal dose of 200 μM I3C
Procedure: Melanoma cells were treated with the indicated concentrations of 1-benzyl […] in triplicates every 24 hours and harvested at the end of 24, 48 or 72 hours for cell cycle analysis. The DNA content of propidium iodide stained nuclei from harvested cells were determined by flow cytometry. Briefly, cells were hypotonically lysed in […] of DNA staining solution (0.5 mg/mL propidium iodide, 0.1% sodium citrate, and 0.05% Triton-X 100). Emitted fluorescence from the nuclear of wavelengths more than 585 nm was measured with a Coulter Elite instrument with laser output adjusted to deliver 15 mW at 488 nm. Ten thousand nuclei were analyzed from each sample at a rate of 300-500 nuclei/second. The percentage of cells within the G1, S, and G2/M phases of the cell cycle were determined by analysis with the Multicycle computer program provided by Phoenix Flow Systems in the Cancer Research Laboratory Microchemical Facility of the University of California, Berkeley.

CDK4 = assay: Western blot of CDK4; type: cell-based, human; conditions: G-361 cells, 48 hours; 200 μM I3C, 10 μM Vemurafenib or 10 μM U0126
Procedure: as §1

BRAF-V600E = molecular target: T1, BRAF-V600E (Homo sapiens, UniProt P15056, V600E); assay: BRAF kinase assay on BRAF immunoprecipitated from pretreated G-361 cells; type: biochemical; conditions: G-361 cells treated 48 hours; 200 μM or 400 μM I3C, 10 μM Vemurafenib
T1 construct: BRAF-V600E was immunoprecipitated from untreated G-361 cells and incubated in vitro; endogenous in cells; host or cells: G-361 human melanoma cells (ATCC)
Procedure: BRAF was pulled down from the cell lysates using anti-BRAF antibodies bound to protein G-coupled Sepharose beads, while IgG was used as a negative control. Post-immunoprecipitation supernatants were probed with anti BRAF antibody by western blots to determine pull-down efficiency. […] The reactions were terminated by adding 4× sodium dodecyl sulfate (SDS) sample buffer and boiling the mixture at 100° C. for 5 min. The samples were then electrophoresed, immunoblotted and probed for relative protein levels of phosphorylated MEK and total MEK to assess the kinase activity of the immunoprecipitated BRAF.

T1 sequence (P15056 whole entry V600E): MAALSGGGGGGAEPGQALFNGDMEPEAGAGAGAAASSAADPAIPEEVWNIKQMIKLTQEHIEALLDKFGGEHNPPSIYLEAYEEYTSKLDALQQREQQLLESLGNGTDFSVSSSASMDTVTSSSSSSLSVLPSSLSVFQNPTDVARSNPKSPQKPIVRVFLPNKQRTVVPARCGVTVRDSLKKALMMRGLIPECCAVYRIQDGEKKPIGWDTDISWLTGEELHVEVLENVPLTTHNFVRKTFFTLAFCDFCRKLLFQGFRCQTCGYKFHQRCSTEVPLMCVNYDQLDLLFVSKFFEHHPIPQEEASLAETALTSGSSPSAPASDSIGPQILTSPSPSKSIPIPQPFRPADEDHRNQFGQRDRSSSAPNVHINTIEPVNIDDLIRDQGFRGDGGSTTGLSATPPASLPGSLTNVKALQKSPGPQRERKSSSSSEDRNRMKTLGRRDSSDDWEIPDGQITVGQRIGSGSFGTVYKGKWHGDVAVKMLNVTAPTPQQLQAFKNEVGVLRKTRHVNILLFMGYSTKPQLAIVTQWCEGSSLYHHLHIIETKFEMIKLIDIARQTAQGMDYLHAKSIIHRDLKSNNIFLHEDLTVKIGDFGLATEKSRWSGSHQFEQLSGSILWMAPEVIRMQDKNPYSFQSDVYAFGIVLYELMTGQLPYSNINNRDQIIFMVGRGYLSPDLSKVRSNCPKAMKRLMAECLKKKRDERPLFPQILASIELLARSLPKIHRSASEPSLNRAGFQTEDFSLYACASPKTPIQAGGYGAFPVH

Row | Structure (SMILES) | LRP5/6 levels (LRP5/6) | G1 cell cycle arrest (DM738 cells) | CDK4 protein levels (CDK4) | BRAF-V600E enzymatic activity (phosphorylated MEK) after cellular treatment (BRAF-V600E)
1 | OCc1cn(Cc2ccccc2)c2ccccc12 [1-benzyl I3C, 1-benzyl indole-3-carbinol] | significantly downregulated |  |  | 
2 | OCc1c[nH]c2ccccc12 [I3C, indole-3-carbinol] |  | significant G1 cell cycle arrest | down regulated | significantly inhibited BRAF-V600E enzymatic activity
